Reference: patent US10813909B2 (THE REGENTS OF THE UNIVERSITY OF CALIFORNIA, priority 2016, dated 2020)
Entries after “also recorded” stand apart in the source; their conditions may differ.

Columns and labels:
BIRC5 = experiment: Cardiac glycosides, BIRC5 expression in pancreatic cancer; type: cell-based
MIA PaCa2 cells = experiment: Cell viability/proliferation, MIA PaCa2; type: cell-based, human; conditions: in vitro; metformin 500 μM, simvastatin 4 μM, digoxin 50 nM, alone or combined; paclitaxel 100 nM where added
BIRC5 mRNA [1] = experiment: BIRC5 mRNA expression in PDCL5 in vitro; type: cell-based, human
BIRC5 mRNA [2] = experiment: BIRC5 mRNA expression in PDCL15 in vitro; type: cell-based, human
[3] = system: patient-derived pancreatic cancer cell line #15 (PDCL-15); experiment: Cell viability/proliferation (CellTiter-Glo, Gaussia luciferase), patient-derived line #15; type: cell-based, human; conditions: in vitro; metformin 500 μM, simvastatin 4 μM, digoxin 50 nM, alone or combined; paclitaxel 100 nM where added
[4] = system: pancreatic cancer cell lines; experiment: Proliferation, viability and apoptosis of pancreatic cancer cell lines in vitro (line not specified); type: cell-based, human
[5] = system: HK2, LDHA, LDHB, ENO2, ENO1; experiment: Transcriptome analysis of glycolysis/TCA cycle/Warburg effect genes in pancreatic cancer cell lines; conditions: patient-derived and commercial pancreatic cancer cell lines
[6] = system: patient-derived pancreatic cancer cell line #5 (PDCL-5); experiment: Cell viability/proliferation (CellTiter-Glo, Gaussia luciferase), patient-derived line #5; type: cell-based, human; conditions: in vitro; metformin 500 μM, simvastatin 4 μM, digoxin 50 nM, alone or combined; paclitaxel 100 nM where added
PANC1 cells = experiment: Cell viability/proliferation, PANC1; type: cell-based, human; conditions: in vitro; metformin 500 μM, simvastatin 4 μM, digoxin 50 nM, alone or combined; paclitaxel 100 nM where added
BIRC5 promoter = experiment: High-throughput drug screening with BIRC5 synthetic promoter; type: cell-based, human; conditions: high-throughput screening of FDA-approved drug libraries, MIA PaCa2 cells
Text: FIG. 12 is a graph illustrating BIRC5 SP high-throughput (HTS) drug screening in MIA PaCa2 cells, in accordance with one or more embodiments of the invention;
Pancreatic ductal adenocarcinoma (PDAC) is one of the most deadly forms of cancer and almost all patients with PDAC succumb to this lethal disease within months of diagnosis. To fight against PDAC, we utilized the concept of an “actionable gene”, on which action can be taken to alter disease progression or guide choice of therapy. We have identified actionable gene, BIRC5, for PDAC using microarray data sets and our own RNA-Seq data of PDAC patient specimens. […] .

DUSP15 and RHOB = experiment: Cell death/apoptosis related gene expression in PDCL5 (RNA-Seq, real-time PCR); conditions: PDCL5 in vitro
AsPC1 cells = experiment: Cell viability, AsPC1; type: cell-based, human; conditions: in vitro
Capan2 cells = experiment: Cell viability, Capan2; type: cell-based, human; conditions: in vitro, with and without paclitaxel
[7] = mice; cited from earlier work

With C[C@@H]1O[C@@H](O[C@H]2C[C@@H](O)[C@]3(CO)[C@H]4[C@H](O)C[C@]5(C)[C@@H](C6=CC(=O)OC6)CC[C@]5(O)[C@@H]4CC[C@]3(O)C2)[C@H](O)[C@H](O)[C@H]1O [Ouabain, ouabain] the “BIRC5 expression in pancreatic cancer” value (BIRC5) was “inhibit BIRC5 expression” and the “cell viability / proliferation, MIA PaCa2” value (MIA PaCa2 cells) was “suppresses”.

With CC(=O)O[C@H]1C[C@H](O[C@H]2[C@@H](O)C[C@H](O[C@H]3[C@@H](O)C[C@H](O[C@H]4CC[C@@]5(C)[C@H](CC[C@@H]6[C@@H]5C[C@@H](O)[C@]5(C)[C@@H](C7=CC(=O)OC7)CC[C@]65O)C4)O[C@@H]3C)O[C@@H]2C)O[C@H](C)[C@H]1O[C@@H]1O[C@H](CO)[C@@H](O)[C@H](O)[C@H]1O [Lanatoside C] the “BIRC5 expression in pancreatic cancer” value (BIRC5) was “inhibit BIRC5 expression”.

With CC(C)n1c(/C=C/C(O)CC(O)CC(=O)O)c(-c2ccc(F)cc2)c2ccccc21 (centres unmarked) [fluvastatin] the “BIRC5 mRNA expression, PDCL #5” value (BIRC5 mRNA [1]) was “suppress”, the “cell viability / proliferation, MIA PaCa2” value (MIA PaCa2 cells) was “suppresses” and the “BIRC5 mRNA expression, PDCL #15” value (BIRC5 mRNA [2]) was “suppress”.

With C[C@]12CC[C@H](O)C[C@H]1CC[C@@H]1[C@@H]2CC[C@]2(C)[C@@H](C3=CC(=O)OC3)CC[C@]12O [Digitoxigenin] the “BIRC5 expression in pancreatic cancer” value (BIRC5) was “inhibit BIRC5 expression”.

In the case of C[C@]12CC[C@H](O)C[C@H]1CC[C@@H]1[C@@H]2CC[C@]2(C)[C@@H](c3ccc(=O)oc3)CC[C@]12O [bufalin], the “BIRC5 expression in pancreatic cancer” value (BIRC5) is reported as “inhibit BIRC5 expression”.

For CN(C)C(=N)N=C(N)N [Metformin, metformin], the “cell viability / proliferation, patient-derived pancreatic cancer cell #15” value [3] was “suppresses; also recorded: suppress”, the “BIRC5 mRNA expression, PDCL #5” value (BIRC5 mRNA [1]) was “suppress” and the “cell proliferation / viability, pancreatic cancer cell lines” value [4] was “suppresses”. For the same compound, the “glycolysis / TCA cycle / Warburg effect related gene expression” value [5] was “inhibitory effect”, the “cell viability / proliferation, patient-derived pancreatic cancer cell #5” value [6] was “suppresses; also recorded: suppress” and the “cell viability / proliferation, PANC1” value (PANC1 cells) was “suppresses; also recorded: suppress”. For the same compound, the “expression from the BIRC5 promoter” value (BIRC5 promoter) was “target BIRC5”, the “cell death/apoptosis related gene expression (DUSP15, RHOB)” value (DUSP15 and RHOB) was “do not have an effect” and the “cell viability / proliferation, MIA PaCa2” value (MIA PaCa2 cells) was “suppresses; also recorded: suppress”. The “cell viability, AsPC1” value (AsPC1 cells) was “suppress”, the “cell viability, Capan2” value (Capan2 cells) was “suppress” and the “BIRC5 mRNA expression, PDCL #15” value (BIRC5 mRNA [2]) was “suppress”.

For CC[C@H](C)C(=O)O[C@H]1C[C@@H](C)C=C2C=C[C@H](C)[C@H](CC[C@@H]3C[C@@H](O)CC(=O)O3)[C@H]21 [Lovastatin, lovastatin], the “BIRC5 mRNA expression, PDCL #5” value (BIRC5 mRNA [1]) was “suppress”, the “cell viability / proliferation, MIA PaCa2” value (MIA PaCa2 cells) was “suppresses” and the “BIRC5 mRNA expression, PDCL #15” value (BIRC5 mRNA [2]) was “suppress”.

For C[C@H]1O[C@@H](O[C@H]2[C@@H](O)C[C@H](O[C@H]3[C@@H](O)C[C@H](O[C@H]4CC[C@@]5(C)[C@H](CC[C@@H]6[C@@H]5C[C@@H](O)[C@]5(C)[C@@H](C7=CC(=O)OC7)CC[C@]65O)C4)O[C@@H]3C)O[C@@H]2C)C[C@H](O)[C@@H]1O [Digoxin, digoxin], the “cell viability / proliferation, patient-derived pancreatic cancer cell #15” value [3] was “suppresses; also recorded: suppress”, the “BIRC5 mRNA expression, PDCL #5” value (BIRC5 mRNA [1]) was “suppress” and the “BIRC5 expression in pancreatic cancer” value (BIRC5) was “inhibit BIRC5 expression”. For the same compound, the “cell viability / proliferation, patient-derived pancreatic cancer cell #5” value [6] was “suppresses; also recorded: suppress”, the “cell viability / proliferation, PANC1” value (PANC1 cells) was “suppresses; also recorded: suppress” and the “expression from the BIRC5 promoter” value (BIRC5 promoter) was “target BIRC5”. The “cell death/apoptosis related gene expression (DUSP15, RHOB)” value (DUSP15 and RHOB) was “do not have an effect”, the “Lethal Dose (LD50)” value [7] was 4 mg/kg and the “cell viability / proliferation, MIA PaCa2” value (MIA PaCa2 cells) was “suppresses; also recorded: suppress”. The “cell viability, AsPC1” value (AsPC1 cells) was “suppress”, the “cell viability, Capan2” value (Capan2 cells) was “suppress” and the “BIRC5 mRNA expression, PDCL #15” value (BIRC5 mRNA [2]) was “suppress”.
